Laboratory results from patent US10874743B2, “IRAK degraders and uses thereof” (Kymera Therapeutics, Inc., priority 2017, dated 2020).

Assays:
Format in all cases: cell-based
OCI-LY10 cells = assay: OCI-LY-10 CTG cell viability assay (EC50); conditions: Homo sapiens, 96 h, CellTiter-Glo cell viability, 4 days incubation, top concentration 10 μM, read-out: OCI-LY10 IRAK4 EC50
Protocol: A CTG cell viability assay using OCI-LY-10 cells was run to determine compound-mediated cell viability (EC50).
Compound-mediated viability effect on OCI-LY10 was quantitatively determined using the CellTiter-Glo® Luminescent Cell Viability Assay kit from Promega (Catalog number G7570) following manufacturer's recommended procedures. […] Compounds were then added to the assay plate with final top concentration of 10 μM and 1:3 dilution series with total of 9 doses. The final DMSO concentration was normalized to 0.2%. The assay plates were incubated at 37° C. for 4 days under 5% CO2. Then the assay plate was equilibrated at room temperature for 10 minutes. […] The data was then analyzed by software Prism 7.0 from GraphPad and the dose response curves were fit using a three-parameter logistic equation to calculate EC50.

IRAK4 [1] = target: T1, IRAK4 (Homo sapiens, UniProt Q9NWZ3); assay: OCI-LY-10 degradation assay (western blot, % IRAK4 degraded after 4 hours); parameters: endogenous in cells; host or cells: OCI-LY10; conditions: OCI-LY10 cells, 4 hours; for OCI-LY10 % IRAK4 Degradation (0.01 uM): 0.01 uM compound; for OCI-LY10 % IRAK4 Degradation (0.1 uM): 0.1 uM compound; for OCI-LY10 % IRAK4 Degradation (1 uM): 1 uM compound
T1 sequence (Q9NWZ3 1-460): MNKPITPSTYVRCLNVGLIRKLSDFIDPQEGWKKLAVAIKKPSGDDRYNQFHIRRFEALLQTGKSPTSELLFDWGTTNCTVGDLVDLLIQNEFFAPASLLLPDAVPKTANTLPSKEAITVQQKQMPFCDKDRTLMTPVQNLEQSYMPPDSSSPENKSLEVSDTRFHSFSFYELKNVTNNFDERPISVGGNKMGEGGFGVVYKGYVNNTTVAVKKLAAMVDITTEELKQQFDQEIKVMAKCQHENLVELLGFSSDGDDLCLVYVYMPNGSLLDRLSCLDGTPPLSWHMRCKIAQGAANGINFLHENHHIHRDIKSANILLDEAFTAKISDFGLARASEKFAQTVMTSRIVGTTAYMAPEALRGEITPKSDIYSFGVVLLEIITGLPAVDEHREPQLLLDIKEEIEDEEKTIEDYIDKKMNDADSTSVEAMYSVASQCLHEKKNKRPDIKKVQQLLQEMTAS
Outline: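 IRAK4 loss after 4 h at 37° C was scored A (>50%), B (>20-50%) or C (<20%) from infrared western blots of RIPA lysates, 20-25 μg protein per lane. Compound was applied at 0.003-10 μM final to OCI-LY10 cells cultured in RPMI-1640 with 20% FBS and 55 μM 2-ME.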

IRAK4 [2] = target: T1, IRAK4; assay: OCI-LY-10 MSD assay for IRAK4 DC50; parameters: endogenous in cells; host or cells: OCI-LY10; conditions: OCI-LY10 cells, 4 hr incubation, concentration required to degrade 50% of protein
Outline: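 IRAK4 level was quantified by MSD electrochemiluminescence (anti-IRAK4 capture antibody, rabbit anti-IRAK4 detection antibody) in RIPA lysates of OCI-Ly10 cells. Cells had been treated with compound for 4 hr (8-point, 3-fold serial dilution). Remaining protein versus concentration was fitted to a sigmoidal curve to give DC50.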

Compound	EC50 (OCI-LY10 cells)	OCI-LY10 % IRAK4 Degradation (0.01 uM) (IRAK4 [1])	OCI-LY10 % IRAK4 Degradation (0.1 uM) (IRAK4 [1])	OCI-LY10 % IRAK4 Degradation (1 uM) (IRAK4 [1])	DC50 (IRAK4 [2])
Cn1c(=O)n(C2CCC(=O)NC2=O)c2ccc(CNC(=O)OCCCNCc3ccc(-n4cc(NC(=O)c5coc(-c6ccnc(NCC(F)(F)F)c6)n5)c(C(N)=O)n4)cc3)cc21 (centres unmarked) [I-563]	> 1000 nM				
CN1C(=O)CCC(n2c(=O)n(C)c3c(CCCOCCOCCNCc4ccc(-n5cc(NC(=O)c6coc(-c7ccnc(NCC(F)(F)F)c7)n6)c(C(N)=O)n5)cc4)cccc32)C1=O (centres unmarked) [I-544]	> 1000 nM				
Cn1cc(NC(=O)c2coc(-c3ccnc(NCC(F)(F)F)c3)n2)c(C(=O)NCCOCCOCCOCCCc2cccc3c2n(C)c(=O)n3C2CCC(=O)NC2=O)n1 (centres unmarked) [I-464]	> 1000 nM				
Cc1ncsc1-c1ccc(CNC(=O)[C@@H]2C[C@@H](O)CN2C(=O)[C@@H](NCCOCCOCCOCCNCc2nn(C)cc2NC(=O)c2coc(-c3ccnc(NCC(F)(F)F)c3)n2)C(C)(C)C)cc1 [I-524]	> 1000 nM				
Cn1cc(NC(=O)c2cnn3ccc(N4CCN(C(=O)COCCOCCCc5ccc6c(c5)n(C)c(=O)n6C5CCC(=O)NC5=O)CC4)nc23)c(C(F)F)n1 (centres unmarked) [I-469]	> 1000 nM				
CN(CC(=O)N(C)CC(=O)N(C)CC(=O)N(C)CCCc1ccc2c(c1)n(C)c(=O)n2C1CCC(=O)NC1=O)Cc1ccc(-n2cc(NC(=O)c3coc(-c4ccnc(NCC(F)(F)F)c4)n3)c(C(N)=O)n2)cc1 (centres unmarked) [I-526]	> 1000 nM				
Cn1cc(NC(=O)c2cnn3ccc(N4CCN(C(=O)COCCOCCOCCOCCNc5cccc6c5C(=O)N(C5CCC(=O)NC5=O)C6=O)CC4)nc23)c(C(F)F)n1 (centres unmarked) [I-467]	> 1000 nM				
Cn1ncc2nc(Nc3cnn(CCOCCOCCOCCNc4cccc5c4C(=O)N(C4CCC(=O)NC4=O)C5=O)c3)nc(NC3CCC(N4CCOCC4)CC3)c21 (centres unmarked) [I-691]	> 1000 nM				
CN1C(=O)CCC(n2c(=O)n(C)c3c(CCCOCCOCCNCc4ccc(-n5cc(NC(=O)c6coc(-c7ccnc(NCC8CC8)c7)n6)c(C(F)F)n5)cc4)cccc32)C1=O (centres unmarked) [I-596]	> 1000 nM				
CN(C)CCNC(=O)c1nn(-c2ccc(CNCCCCOCCCCc3ccc4c(c3)n(C)c(=O)n4C3CCC(=O)NC3=O)cc2)cc1NC(=O)c1coc(-c2ccnc(NCC(F)(F)F)c2)n1 (centres unmarked) [I-560]	> 1000 nM				
CN(Cc1ccc(-n2cc(NC(=O)c3coc(-c4ccnc(NCC5CC5)c4)n3)c(C(F)F)n2)cc1)C[C@H]1CN(CCCc2ccc3c(c2)n(C)c(=O)n3C2CCC(=O)NC2=O)CCO1 (some centres unmarked) [I-598]	< 50 nM				
Cn1cc(NC(=O)c2cnn3ccc(N4CCN(C(=O)COCCOCCOCCNc5cccc6c5C(=O)N(C5CCC(=O)NC5=O)C6=O)CC4)nc23)c(C(F)F)n1 (centres unmarked) [I-468]	> 1000 nM				
Cn1c(=O)n(C2CCC(=O)NC2=O)c2ccc(C#CCCN3CCC(CNCc4ccc(-n5cc(NC(=O)c6coc(-c7ccnc(NCC8CC8)c7)n6)c(C(F)F)n5)cc4)CC3)cc21 (centres unmarked) [I-582]	< 50 nM				
Cc1ncsc1-c1ccc(CNC(=O)[C@@H]2C[C@@H](O)CN2C(=O)[C@@H](NC(=O)CCCCCCCCCCC(=O)N2CCN(c3ccn4ncc(C(=O)Nc5cn(C)nc5C(F)F)c4n3)CC2)C(C)(C)C)cc1 [I-483]	> 1000 nM				
Cn1cc(NC(=O)c2cnn3ccc(N4CCN(C(=O)COCCOCCOCCOCCCc5cccc6c5n(C)c(=O)n6C5CCC(=O)NC5=O)CC4)nc23)c(C(F)F)n1 (centres unmarked) [I-465]	> 1000 nM				
CN(CCCCOCCCCc1ccc2c(c1)n(C)c(=O)n2C1CCC(=O)NC1=O)Cc1ccc(-n2cc(NC(=O)c3coc(-c4ccnc(NCC(F)(F)F)c4)n3)c(C(N)=O)n2)cc1 (centres unmarked) [I-578]	500 to 1000 nM				
CN(C)CCNC(=O)c1nn(-c2ccc(C(=O)NCCCCOCCCCc3ccc4c(c3)n(C)c(=O)n4C3CCC(=O)NC3=O)cc2)cc1NC(=O)c1coc(-c2ccnc(NCC(F)(F)F)c2)n1 (centres unmarked) [I-482]	100 to 500 nM				
Cc1ncsc1-c1ccc(CNC(=O)[C@@H]2C[C@@H](O)CN2C(=O)[C@@H](NC(=O)COCCOCCOCC(=O)N2CCN(c3ccn4ncc(C(=O)Nc5cn(C)nc5C(F)F)c4n3)CC2)C(C)(C)C)cc1 [I-485]	> 1000 nM				
CN1CCN(C(=O)c2nn(-c3ccc(C(=O)NCCCCOCCCCc4ccc5c(c4)n(C)c(=O)n5C4CCC(=O)NC4=O)cc3)cc2NC(=O)c2coc(-c3ccnc(NCC(F)(F)F)c3)n2)CC1 (centres unmarked) [I-481]	50 to 100 nM				
Cn1cc(NC(=O)c2cnn3ccc(N4CCNCC4)nc23)c(C(=O)NCCOCCOCCOCCNc2cccc3c2C(=O)N(C2CCC(=O)NC2=O)C3=O)n1 (centres unmarked) [I-471]	> 1000 nM				
Cn1c(=O)n(C2CCC(=O)NC2=O)c2cccc(CCCOCCNCc3ccc(-n4cc(NC(=O)c5coc(-c6ccnc(NCC(F)(F)F)c6)n5)c(C(F)F)n4)cc3)c21 (centres unmarked) [I-533]	500 to 1000 nM				
O=C1CCC(N2C(=O)c3ccc(CCCNCc4ccc(-n5cc(NC(=O)c6coc(-c7ccnc(NCC8CC8)c7)n6)c(C(F)F)n5)cc4)cc3C2=O)C(=O)N1 (centres unmarked) [I-371]		C (<20% degradation)	C (<20% degradation)	B (>20-50% degradation)	> 1000 nM
O=C1CCC(N2C(=O)c3cccc(NCCOCCN4CCO[C@H](CNC(=O)c5ccc(-n6cc(NC(=O)c7coc(-c8ccnc(NCC(F)(F)F)c8)n7)c(C(F)F)n6)cc5)C4)c3C2=O)C(=O)N1 (some centres unmarked) [I-281]		C (<20% degradation)	A (>50% degradation)	A (>50% degradation)	50 to 100 nM
O=C1CCC(N2C(=O)c3cccc(NCCOCCOCCOCC(=O)N4C[C@H](O)C[C@H]4C(=O)NCc4ccc(-n5cc(NC(=O)c6coc(-c7ccnc(NCC8CC8)c7)n6)c(C(F)F)n5)cc4)c3C2=O)C(=O)N1 (some centres unmarked) [I-287]		C (<20% degradation)	C (<20% degradation)	B (>20-50% degradation)	> 1000 nM
NC(=O)c1nn(-c2ccc(C(=O)NCCOCCOCCCc3cccc4c3oc(=O)n4C3CCC(=O)NC3=O)cc2)cc1NC(=O)c1coc(-c2ccnc(NCC(F)(F)F)c2)n1 (centres unmarked) [I-266]		C (<20% degradation)	A (>50% degradation)	A (>50% degradation)	< 50 nM
O=C1CCC(N2C(=O)c3cccc(NCCOCCN4CC5(CN(CCOCCNCc6ccc(-n7cc(NC(=O)c8coc(-c9ccnc(NCC%10CC%10)c9)n8)c(C(F)F)n7)cc6)C5)C4)c3C2=O)C(=O)N1 (centres unmarked) [I-350]		C (<20% degradation)	C (<20% degradation)	B (>20-50% degradation)	> 1000 nM
O=C1CCC(N2C(=O)c3ccc(CCCOCCNCc4ccc(-n5cc(NC(=O)c6coc(-c7ccnc(NCC8CC8)c7)n6)c(C(F)F)n5)cc4)cc3C2=O)C(=O)N1 (centres unmarked) [I-381]		B (>20-50% degradation)	A (>50% degradation)	A (>50% degradation)	< 50 nM
NC(=O)c1nn(-c2ccc(C(=O)NCCOCCOCCNc3cccc4c3C(=O)N(C3CCC(=O)NC3=O)C4=O)cc2)cc1NC(=O)c1coc(-c2ccnc(N)c2)n1 (centres unmarked) [I-427]		B (>20-50% degradation)	A (>50% degradation)	A (>50% degradation)	< 50 nM
O=C1CCC(N2C(=O)c3cccc(NC4CCN(CCOCCOCCNC(=O)c5ccc(-n6cc(NC(=O)c7coc(-c8ccnc(NCC9CC9)c8)n7)c(C(F)F)n6)cc5)CC4)c3C2=O)C(=O)N1 (centres unmarked) [I-267]		C (<20% degradation)	A (>50% degradation)	B (>20-50% degradation)	50 to 100 nM
